Assay [1] concerns Adults of Ctenocephalides felis. Kind of assay: Test with cat fleas / oral uptake. Type of assay: in vivo. The note with it: 100 ppm in citrated cattle blood, mortality after 24 h, strain "Georgi", at least 25% kill judged effective, read-out: % action (mortality of larvae). The protocol: Test with Cat Fleas/Oral Uptake
To produce a suitable preparation, a suitable solution of active compound is prepared from 20 mg of active compound and 1 ml of DMSO. 20 μl of this formulation are added to 4 ml of citrated cattle blood and stirred.
20 unfed adult fleas (Ctenocephalides felis, strain “Georgi”) are placed into a chamber (Ø 5 cm) whose top and bottom are closed with gauze. A metal cylinder whose underside is covered with parafilm is placed onto the chamber. The cylinder contains the 4 ml of blood/active compound formulation which can be taken up by the fleas through the parafilm membrane. Whereas the blood is warmed to 37° C., the temperature in the area of the flea chambers is adjusted to 25° C. Controls are mixed with the same volume of DMSO, without addition of a compound. The determinations are carried out triplicate.
After 24 h, the mortality in % is determined.
Compounds which effect an at least 25% kill of the fleas within 24 h are judged to be effective.

The subject of a further assay is Meloidogyne incognita. Briefly: Meloidogyne test (nematicidal action, gall formation on lettuce roots). Type of assay: in vivo. As to conditions: 20 ppm active compound; 100% = no galls found, 0% = galls as untreated control; lettuce in sand. The procedure:
To produce a suitable preparation of active compound, 1 part by weight of active compound is mixed with the stated amounts of solvent and emulsifier, and the concentrate is diluted with water to the desired concentration.
Containers are filled with sand, solution of active compound, Meloidogyne incognita egg larvae suspension and lettuce seeds. The lettuce seeds germinate and the plants develop. On the roots, galls are formed.
After the desired period of time, the nematicidal action is determined in % using gall formation as a measure. 100% means that no galls were found; 0% means that the number of galls on the treated plants corresponds to that of the untreated control.

Consider `CN(Cc1ccc(Cl)nc1)C1=N/C(=N/C#N)SC1` [Example I-1, 4-(N-(6-chloro-3-pyridylmethyl)-N-methyl)amino-2-cyanimino-2,5-dihydro-[1,3]-thiazoline], for which the mortality at 100 ppm in assay [1] was 30%.
With `CN(Cc1ccc(Cl)nc1)C1=N/C(=N/C#N)SC1` [drawing 50], the “Kill rate in % after 14 days” value in the assay with Meloidogyne incognita worked out at 98%.

The values above are taken from patent US7417150B2, “Azoles having an insecticidal action” (Bayer CropScience AG, priority 2001, dated 2008).
